Here are results for 7 compounds from PubChem BioAssay (NCI).

Among the test systems are HOP-92 NSCLC; COLO 205 colon; OVCAR-3 ovarian; NCI-H23 lung; DU-145 prostate; SK-MEL-28 melanoma; ACHN renal; NCI-H522 lung; OVCAR-5 ovarian; CAKI-1 renal.
Test in all cases: inhibition of tumour cell growth, NCI panel, 48 h

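How tested: cells in 96-well plates exposed to compound for 48 hours at five concentrations. Here, GI50 denotes the concentration required for 50% inhibition of growth. At the TGI there is no net growth.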

As to `COc1c(O)c(OC)c2oc(-c3ccc(O)c(O)c3)c(OC)c(=O)c2c1O`, the TGI with HOP-92 NSCLC is 66 µM; in the experiment on COLO 205 colon, above 100 µM; with OVCAR-3 ovarian it was 8.53 µM; in the experiment on NCI-H23 lung it was above 100 µM; in the experiment on DU-145 prostate it was 98.8 µM; in the experiment with SK-MEL-28 melanoma, above 100 µM. The TGI was above 100 µM in the experiment on ACHN renal, 33.4 µM in the experiment on NCI-H522 lung, above 100 µM in the experiment with OVCAR-5 ovarian and above 100 µM in the experiment with CAKI-1 renal.
On to `Cc1ccc(NC(=O)c2ccc(CN3CCN(C)CC3)cc2)cc1Nc1nccc(-c2cccnc2)n1`, for which the GI50 with HOP-92 NSCLC was 12.6 µM; in the experiment with COLO 205 colon, 16.7 µM; in the experiment with OVCAR-3 ovarian, 31.1 µM; with NCI-H23 lung, 15 µM; with DU-145 prostate, 19.7 µM; with SK-MEL-28 melanoma, 15.1 µM. In addition, the GI50 in the experiment with ACHN renal is 24.1 µM; with NCI-H522 lung, 16.1 µM; with OVCAR-5 ovarian it was 2.08 µM; in the experiment on CAKI-1 renal, 30.3 µM. Further, the TGI in the experiment on HOP-92 NSCLC amounted to 37.3 µM; in the experiment on COLO 205 colon, 40.5 µM; with OVCAR-3 ovarian, 72.9 µM; in the experiment with NCI-H23 lung, 38.2 µM; in the experiment with DU-145 prostate it was 55.6 µM; with SK-MEL-28 melanoma, 29.6 µM. The TGI with ACHN renal was 72.9 µM; with NCI-H522 lung, 32.7 µM; with OVCAR-5 ovarian, 39.5 µM; in the experiment with CAKI-1 renal, 67 µM.
For `CCOC(=O)c1ccc(Nc2sc(C(=O)c3ccc(Br)cc3)c(N)c2C#N)cc1`, the GI50 in the experiment with HOP-92 NSCLC was 0.884 µM; in the experiment on COLO 205 colon it was 0.675 µM; in the experiment with OVCAR-3 ovarian, 0.364 µM; in the experiment with NCI-H23 lung, 14.3 µM; in the experiment with DU-145 prostate, 1.8 µM; in the experiment with SK-MEL-28 melanoma, 4.81 µM. Also, the GI50 with ACHN renal is 3.24 µM; in the experiment on NCI-H522 lung it was 0.53 µM; in the experiment with OVCAR-5 ovarian, 5.66 µM; in the experiment on CAKI-1 renal, 1.73 µM. Also, the TGI with HOP-92 NSCLC is above 100 µM; in the experiment on COLO 205 colon it was 2.47 µM; with OVCAR-3 ovarian, 2.19 µM; in the experiment on NCI-H23 lung it was above 100 µM; in the experiment on DU-145 prostate, above 100 µM; with SK-MEL-28 melanoma, above 100 µM. Besides, the TGI in the experiment with ACHN renal, in the experiment on NCI-H522 lung, with OVCAR-5 ovarian and in the experiment on CAKI-1 renal was above 100 µM throughout.
With `Cc1cc(Nc2ccc(OCc3ccccc3)cc2)nc2cc(O)ccc12`, the GI50 with HOP-92 NSCLC is 2.01 µM; in the experiment with COLO 205 colon, 4.84 µM; in the experiment with OVCAR-3 ovarian, 8.79 µM; in the experiment on NCI-H23 lung, 6.91 µM; in the experiment with DU-145 prostate it was 11.9 µM; with SK-MEL-28 melanoma, 2.95 µM. Moreover, the GI50 is 3.41 µM in the experiment on ACHN renal, 3.01 µM in the experiment with NCI-H522 lung, 4.66 µM in the experiment on OVCAR-5 ovarian and 4.88 µM with CAKI-1 renal. In addition, the TGI in the experiment on HOP-92 NSCLC stood at 6.26 µM; with COLO 205 colon it was 17 µM; with OVCAR-3 ovarian it was 22.5 µM; in the experiment with NCI-H23 lung, 21.5 µM; in the experiment with DU-145 prostate, 25.4 µM; in the experiment on SK-MEL-28 melanoma, 8.19 µM. Further, the TGI in the experiment with ACHN renal came out at 13.3 µM; in the experiment with NCI-H522 lung, 12.1 µM; with OVCAR-5 ovarian it was 18.4 µM; in the experiment on CAKI-1 renal, 18.3 µM.
As for `CC(C)(C)N1CCC1CN` (stereo not given), the GI50 in the experiment on HOP-92 NSCLC, with COLO 205 colon, in the experiment with OVCAR-3 ovarian, in the experiment on NCI-H23 lung, in the experiment on DU-145 prostate and in the experiment with SK-MEL-28 melanoma was above 100 µM throughout. The GI50 with ACHN renal, with NCI-H522 lung, with OVCAR-5 ovarian and with CAKI-1 renal was above 100 µM throughout. Moreover, the TGI with HOP-92 NSCLC, with COLO 205 colon, in the experiment on OVCAR-3 ovarian, in the experiment with NCI-H23 lung, with DU-145 prostate and in the experiment with SK-MEL-28 melanoma was above 100 µM throughout. In addition, the TGI in the experiment with ACHN renal, with NCI-H522 lung, in the experiment with OVCAR-5 ovarian and in the experiment with CAKI-1 renal was above 100 µM throughout.
As to `CSC1=Nc2c(c(C)c(-c3ccccc3)n2CCCN2CCCCC2)C2=NC(=O)C[C@H](C)N12`, the GI50 in the experiment with HOP-92 NSCLC is 4.1 µM; with COLO 205 colon, 1.51 µM; with OVCAR-3 ovarian, 2.55 µM; in the experiment on NCI-H23 lung, 3.08 µM; in the experiment on DU-145 prostate, 4.01 µM; in the experiment with SK-MEL-28 melanoma, 3.32 µM. Also, the GI50 in the experiment with ACHN renal is 4.78 µM; in the experiment on NCI-H522 lung, 2.55 µM; in the experiment with OVCAR-5 ovarian it was 11.3 µM; in the experiment on CAKI-1 renal, 12.1 µM. Also, the TGI with HOP-92 NSCLC was 48.9 µM; with COLO 205 colon, 2.95 µM; in the experiment on OVCAR-3 ovarian, 11 µM; in the experiment with NCI-H23 lung it was above 46.4 µM; in the experiment on DU-145 prostate, above 52.4 µM; in the experiment with SK-MEL-28 melanoma, 14.9 µM. Besides, the TGI in the experiment with ACHN renal was 43.8 µM; with NCI-H522 lung it was 9.78 µM; in the experiment on OVCAR-5 ovarian, above 100 µM; in the experiment with CAKI-1 renal, 44.5 µM.
As to `O=C(c1ccco1)c1nc2cc(C(F)(F)F)ccc2nc1C(F)(F)F`, the GI50 is 27.2 µM in the experiment on HOP-92 NSCLC; above 100 µM in the experiment with COLO 205 colon; above 100 µM with OVCAR-3 ovarian; above 100 µM in the experiment with NCI-H23 lung; above 100 µM with DU-145 prostate; above 100 µM in the experiment with SK-MEL-28 melanoma. Besides, the GI50 in the experiment on ACHN renal, in the experiment on NCI-H522 lung, in the experiment with OVCAR-5 ovarian and in the experiment with CAKI-1 renal was above 100 µM in each case. In addition, the TGI in the experiment with HOP-92 NSCLC, with COLO 205 colon, in the experiment with OVCAR-3 ovarian, in the experiment on NCI-H23 lung, in the experiment on DU-145 prostate and in the experiment on SK-MEL-28 melanoma was above 100 µM each time. In addition, the TGI in the experiment on ACHN renal, in the experiment with NCI-H522 lung, in the experiment with OVCAR-5 ovarian and in the experiment with CAKI-1 renal was above 100 µM in each case.
